Assay results: ChEMBL document CHEMBL1201862, “PubChem BioAssay data set” (2004)
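Exposure lasted 48 hours, with cells grown in 96-well plates and compounds tested at five concentrations. GI50 = concentration required for 50% inhibition of growth.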 Activity calls are given as the source filed them. No stated cut-off is given here; in the data, active = GI50 up to about 1.1 µM and inactive = higher.

Assays:
Assay in all cases: NCI tumour cell line growth inhibition, 48 h
MOLT-4 = tested on: MOLT-4
NCI-H460 = tested on: NCI-H460
HL-60 = tested on: HL-60
Malme-3M = tested on: Malme-3M
SR = tested on: SR
786-0 = tested on: 786-0
K562 = tested on: K562
BT-549 = tested on: BT-549
KM12 = tested on: KM12
MDA-MB-435 = tested on: MDA-MB-435
SNB-75 = tested on: SNB-75
COLO 205 = tested on: COLO 205
LOX IMVI = tested on: LOX IMVI
SK-MEL-5 = tested on: SK-MEL-5
NCI-H522 = tested on: NCI-H522
HCC 2998 = tested on: HCC 2998
RXF 393 = tested on: RXF 393
SK-MEL-28 = tested on: SK-MEL-28
UACC-257 = tested on: UACC-257
T47D = tested on: T47D

| SMILES | GI50 (MOLT-4) | GI50 (NCI-H460) | GI50 (HL-60) | GI50 (Malme-3M) | GI50 (SR) | GI50 (786-0) | GI50 (K562) | GI50 (BT-549) | GI50 (KM12) | GI50 (MDA-MB-435) | GI50 (SNB-75) | GI50 (COLO 205) | GI50 (LOX IMVI) | GI50 (SK-MEL-5) | GI50 (NCI-H522) | GI50 (HCC 2998) | GI50 (RXF 393) | GI50 (SK-MEL-28) | GI50 (UACC-257) | GI50 (T47D) |
| --- | --- | --- | --- | --- | --- | --- | --- | --- | --- | --- | --- | --- | --- | --- | --- | --- | --- | --- | --- | --- |
| Cc1ccc(NC(=O)CC(=O)N2N=C(c3ccccc3)C(/N=N/c3ccc(S(=O)(=O)CCOS(=O)(=O)O)cc3)C2=O)cc1 (centres undefined) | > 100 µM (inactive) | > 100 µM (inactive) | > 100 µM (inactive) | > 100 µM (inactive) | > 100 µM (inactive) | 60.5 µM (inactive) | > 100 µM (inactive) | > 100 µM (inactive) | 86.3 µM (inactive) | > 100 µM (inactive) | > 100 µM (inactive) | > 100 µM (inactive) | > 100 µM (inactive) | > 100 µM (inactive) | 58.6 µM (inactive) | > 100 µM (inactive) | > 100 µM (inactive) | > 100 µM (inactive) | > 100 µM (inactive) | – |
| CCOC(=O)c1cc2c3c(c(C(C)=O)c(O)c2[nH]1)N(C(C)=O)CC3 | 27.7 µM (inactive) | > 100 µM (inactive) | 76.2 µM (inactive) | 64.3 µM (inactive) | 50.6 µM (inactive) | > 100 µM (inactive) | 26.9 µM (inactive) | 52 µM (inactive) | 45.4 µM (inactive) | 89.3 µM (inactive) | > 100 µM (inactive) | 63.2 µM (inactive) | > 100 µM (inactive) | 52.7 µM (inactive) | – | – | 21.7 µM (inactive) | 34.4 µM (inactive) | > 100 µM (inactive) | 46.7 µM (inactive) |
| Fc1ccc(C(OCCN2CCC3CCC(C2)N3Cc2cc3ccccc3[nH]2)c2ccc(F)cc2)cc1 (centres undefined) | 1.35 µM (inactive) | 1.78 µM (inactive) | 1.58 µM (inactive) | 1.58 µM (inactive) | – | 1.65 µM (inactive) | 1.13 µM (inactive) | 2.32 µM (inactive) | 1.71 µM (inactive) | 1.88 µM (inactive) | 1.89 µM (inactive) | 0.962 µM (active) | 1.79 µM (inactive) | 1.72 µM (inactive) | 1.47 µM (inactive) | 1.63 µM (inactive) | 1.59 µM (inactive) | 1.61 µM (inactive) | 1.95 µM (inactive) | 1.59 µM (inactive) |
| CSc1nncc2[nH]cnc12 | > 100 µM (inactive) | > 100 µM (inactive) | > 100 µM (inactive) | – | > 100 µM (inactive) | > 100 µM (inactive) | > 100 µM (inactive) | > 100 µM (inactive) | > 100 µM (inactive) | > 100 µM (inactive) | > 100 µM (inactive) | > 100 µM (inactive) | – | > 100 µM (inactive) | – | – | > 100 µM (inactive) | > 100 µM (inactive) | > 100 µM (inactive) | > 100 µM (inactive) |
| CCOC(=O)/C(=C\c1ccc(C#N)cc1)C(C)=O | 25.5 µM (inactive) | 28.8 µM (inactive) | 34 µM (inactive) | 15.2 µM (inactive) | – | 18.4 µM (inactive) | 30.7 µM (inactive) | 13.5 µM (inactive) | 18.6 µM (inactive) | 26.8 µM (inactive) | 14.6 µM (inactive) | 31.3 µM (inactive) | 19.9 µM (inactive) | 21.5 µM (inactive) | 11.5 µM (inactive) | 5.92 µM (inactive) | 15.3 µM (inactive) | – | 18.6 µM (inactive) | 21.4 µM (inactive) |
| CSc1cc(-c2cccs2)sc1-c1cc(SC)c(-c2sc(-c3sc(-c4cccs4)cc3SC)cc2SC)s1 | > 100 µM (inactive) | > 100 µM (inactive) | > 100 µM (inactive) | > 100 µM (inactive) | – | > 100 µM (inactive) | > 100 µM (inactive) | > 100 µM (inactive) | > 100 µM (inactive) | > 100 µM (inactive) | – | > 100 µM (inactive) | > 100 µM (inactive) | > 100 µM (inactive) | > 100 µM (inactive) | > 100 µM (inactive) | > 100 µM (inactive) | > 100 µM (inactive) | > 100 µM (inactive) | > 100 µM (inactive) |
| C=C1[C@@H]2CCC3[C@]4(C)C(CC[C@@]5(C)C(=O)O[C@H](O)[C@@H]45)[C@H](O)[C@]3(C2)[C@H]1OC1OC(CO)C(O)C(O)C1O (some centres undefined) | 17.4 µM (inactive) | > 50 µM (inactive) | > 50 µM (inactive) | > 50 µM (inactive) | – | > 50 µM (inactive) | 14.1 µM (inactive) | > 50 µM (inactive) | > 50 µM (inactive) | – | > 50 µM (inactive) | > 50 µM (inactive) | > 50 µM (inactive) | > 50 µM (inactive) | – | – | > 50 µM (inactive) | > 50 µM (inactive) | > 50 µM (inactive) | > 50 µM (inactive) |
